System: HIV with mutations in the HIV protease sequence
Experiment: Phenotypic fold resistance to protease inhibitors, protease mutations 84A/84L/84C/54M/54L/54V in a background (Examples 8-13)
Assay type: cell-based, HIV-1
Procedure: As is the case with the genotyping assays, the recombinant virus assay starts with the amplification of viral target sequences by means of PCR. The amplicons are incorporated into a proviral laboratory clone with sequences homologous to those present in the amplicon deleted. This generates a stock of chimeric viruses. The viruses are tested for their ability to grow in the presence of different concentrations of drugs. Results are obtained by calculating IC50 values for each inhibitor and by reporting the results as IC50 values, expressed in μM concentrations, or by computing the ratio of the IC50 values found for the chimeric virus to the IC50 values found for a wild type susceptible laboratory virus tested in parallel. In the latter case, resistance is expressed as “fold-resistance” compared to a wild-type susceptible HIV-1 strain. In order to meet the need for high-volume testing and a short turn-around time for an individual test, the latest generation of phenotyping assays has undergone further modifications. The use of reporter gene systems for susceptibility testing allows the implementation of laboratory automation and standardization. See Pauwels, et al., J. Virol. Methods 20, 309-321 (1998); Paulous, S., et al., International Workshop on HIV Drug Resistance, Treatment Strategies and Eradication, St. Petersburg, Fla., USA. Abstr. 46 (1997); and Deeks, S. G., et al., 2nd International Workshop on HIV Drug Resistance and Treatment Strategies, Lake Maggiore, Italy. Abstr. 53 (1998).
The ANTIVIROGRAM® assay (Virco) (WO 97/27480) is based on homologous recombination of patient derived HIV-1 gag/PR/RT sequences into a proviral HIV-1 clone correspondingly deleted for the gag/PR/RT sequences. See Pauwels, et al., J. Virol. Methods 20, 309-321 (1998). A similar assay (Phenosense ViroLogic) is based on enzymatic ligation of patient-derived PR/RT sequences into a correspondingly deleted proviral vector carrying an indicator gene, luciferase, inserted in the deleted HIV-1 envelope gene. See Deeks, S. G., et al., 2nd International Workshop on HIV Drug Resistance and Treatment Strategies, Lake Maggiore, Italy. Abstr. 53 (1998). Hertogs et al. Antimicrob. Agents Chemother. 44(3) 568-573 (2000) the disclosures of which are herein incorporated by reference.
The methods of monitoring HIV-1 drug resistance, may also be used in combination with phenotypic drug resistance testing of viral isolates. For example, in one embodiment, a phenotypic test is utilized that is based upon the construction of chimeric HIV-1 strains composed of the protease (PR) and reverse transcriptase (RT) gene sequences which are isolated and amplified from the patient viral RNA. These strains may subsequently be recombined inside CD4+ T cells with a standard laboratory isogenic (HXB2) HIV-1 DNA construct from which the PR/RT gene sequences were deleted. The recombinant strains may then be grown in the presence of the above-mentioned antiviral drugs and the susceptibility of the viral isolates may be expressed as fold-change value of the IC50 of the drug on the patient isolates over the IC50 of the drug on a wild-type laboratory reference strain.

CC(C)CN(C[C@@H](O)[C@H](Cc1ccccc1)NC(=O)O[C@H]1CCOC1)S(=O)(=O)c1ccc(N)cc1 [Amprenavir, amprenavir]
mean fold increase in resistance (Table 9 #1, protease genotype WT): 1 fold
mean fold increase in resistance (Table 9 #2, protease genotype 10I): 1.1 fold
mean fold increase in resistance (Table 9 #3, protease genotype 46I): 1.2 fold
mean fold increase in resistance (Table 9 #4, protease genotype 46I + 84V): 2.3 fold
mean fold increase in resistance (Table 9 #5, protease genotype 46I + 84A): 7.7 fold
mean fold increase in resistance (Table 9 #6, protease genotype 10I + 46I): 5.6 fold
mean fold increase in resistance (Table 9 #7, protease genotype 10I + 46I + 84V): 4.5 fold
mean fold increase in resistance (Table 9 #8, protease genotype 10I + 46I + 84A): 17 fold
mean fold increase in resistance (Table 9 #9, protease genotype 10L/I + 46I + 84A): 24.9 fold
mean fold increase in resistance (Table 9 #10, protease genotype 10I + 46I + 84A): 11 fold
mean fold increase in resistance (Table 9 #11, protease genotype 46I + 71V): 2.2 fold
mean fold increase in resistance (Table 9 #12, protease genotype 46I + 71V + 84V/I): 2.2 fold
mean fold increase in resistance (Table 9 #13, protease genotype 46I + 71V + 84A): 23 fold
mean fold increase in resistance (Table 9 #14, protease genotype 10F + 46I + 71V): 4.2 fold
mean fold increase in resistance (Table 9 #15, protease genotype 10I + 46I + 71V + 84V): 17.8 fold
mean fold increase in resistance (Table 9 #16, protease genotype 10I + 46I + 71V + 84A): 15.2 fold
mean fold increase in resistance (Table 9 #17, protease genotype 10V + 46I + 71T + 84A): 39.8 fold
mean fold increase in resistance (Table 9 #18, protease genotype 10I + 46I + 71V + 77I): 0.9 fold
mean fold increase in resistance (Table 9 #19, protease genotype 10I + 46I + 71V + 77I + 84V): 1.4 fold
mean fold increase in resistance (Table 9 #20, protease genotype 10I + 46I + 71V + 77I + 84A): 15 fold
mean fold increase in resistance (Table 9 #21, protease genotype 10I + 33L/I + 46I + 71V + 77V/I + 84A): 10.9 fold
mean fold increase in resistance (Table 10 #1, protease genotype 10I + 36I + 71V): 1.0 fold
mean fold increase in resistance (Table 10 #2, protease genotype 10I + 36I + 71I + 84V): 1.1 fold
mean fold increase in resistance (Table 10 #3, protease genotype 10I + 36I + 71I + 84L): 0.3 fold
mean fold increase in resistance (Table 11 #1, protease genotype WT): 1.0 fold
mean fold increase in resistance (Table 11 #2, protease genotype 84V): 2.0 fold
mean fold increase in resistance (Table 11 #3, protease genotype 84C): 5.9 fold
mean fold increase in resistance (Table 11 #4, protease genotype 10I): 1.1 fold
mean fold increase in resistance (Table 11 #5, protease genotype 10I + 84V): 1.2 fold
mean fold increase in resistance (Table 11 #6, protease genotype 10I + 84C): 3.4 fold
mean fold increase in resistance (Table 11 #7, protease genotype 77I): 0.6 fold
mean fold increase in resistance (Table 11 #8, protease genotype 77I + 84V): 3.3 fold
mean fold increase in resistance (Table 11 #9, protease genotype 77I + 84C): 2.2 fold
mean fold increase in resistance (Table 11 #10, protease genotype 77I + 84C): 4.9 fold
mean fold increase in resistance (Table 11 #11, protease genotype 10I + 24I + 36I + 46I + 71V + 84C): 12.8 fold
Fold change in IC50 (Table 12, V19263, genotype 77I): 0.6 fold
Fold change in IC50 (Table 12, V20160, genotype WT): 1.0 fold
Fold change in IC50 (Table 12, V021667, genotype 10I): 1.1 fold
Fold change in IC50 (Table 12, V030496, genotype 10I + 77I): 0.5 fold
Fold change in IC50 (Table 12, V048869, genotype 10I + 54M + 77I + 90M): 9.3 fold
Fold change in IC50 (Table 12, V048872, genotype 33F + 54M + 77I + 90M): 30.3 fold
Fold change in IC50 (Table 12, V048873, genotype 33F + 54M + 77I + 90M): 37.5 fold
Fold change in IC50 (Table 12, V048877, genotype 10I + 33F + 77I + 90M): 7.9 fold
Fold change in IC50 (Table 12, V048878, genotype 10I + 33F + 54M + 71V + 77I + 90M): 13.7 fold
Fold change in IC50 (Table 12, V048879, genotype 10I + 33F + 54M + 71V + 77I + 90M): 14.1 fold
Fold change in IC50 (Table 12, V048880, genotype 10I + 33F + 77I + 90M): 3.8 fold
Fold change in IC50 (Table 12, V052940, genotype 71V): 0.3 fold
Fold change in IC50 (Table 12, V052942, genotype 10I + 71V): 0.5 fold
Fold change in IC50 (Table 12, V052943, genotype 10I + 90M): 0.4 fold
Fold change in IC50 (Table 12, V052944, genotype 10I + 90M): 0.7 fold
Fold change in IC50 (Table 12, V052945, genotype 77I + 90M): 0.3 fold
Fold change in IC50 (Table 12, V052946, genotype 71V + 90M): 0.5 fold
Fold change in IC50 (Table 12, V052947, genotype 10I + 77I + 90M): 1.2 fold
Fold change in IC50 (Table 12, V052948, genotype 10I + 71V + 90M): 2.0 fold
Fold change in IC50 (Table 12, V052949, genotype 10I + 71V + 77I + 90M): 0.6 fold
Fold change in IC50 (Table 12, V052950, genotype 33F): 0.7 fold
Fold change in IC50 (Table 12, V052951, genotype 33F + 77I): 0.3 fold
Fold change in IC50 (Table 12, V052953, genotype 10I + 33F + 77I): 1.5 fold
Fold change in IC50 (Table 12, V052954, genotype 33F + 77I + 90M): 2.1 fold
Fold change in IC50 (Table 12, V052955, genotype 33F + 71V + 90M): 2.7 fold
Fold change in IC50 (Table 12, V052977, genotype 10I + 33F + 54M): 12.2 fold
Fold change in IC50 (Table 12, V052978, genotype 10I + 33F + 54M + 71V + 90M): 19.3 fold
Fold change in IC50 (Table 12, V052979, genotype 10I + 54M): 10.4 fold
Fold change in IC50 (Table 12, V052980, genotype 10I + 54M + 90M): 1.4 fold
Fold change in IC50 (Table 12, V052981, genotype 10I + 54M + 71V + 90M): 8.9 fold
Fold change in IC50 (Table 12, V052982, genotype 10I + 54M + 71V + 77I + 90M): 3.1 fold
Fold change in IC50 (Table 12, V053832, genotype 10I + 33F): 0.6 fold

Source: patent US8574831B2, “Mutational profiles in HIV-1 reverse transcriptase correlated with phenotypic drug resistance” (Virco N.V., priority 2000, dated 2013)
